Source: patent US9951028B2, “Agricultural chemicals” (REDAG CROP PROTECTION LTD, priority 2013, dated 2018)

Columns and labels:
[1] = test system: common chickweed, Stellaria media; test: Herbicidal efficacy screen, potter tower spray, necrosis assessed; format: in vivo
Method: (§1) Compounds 22, 23 and 24 were screened for herbicidal efficacy against target plants: garden cress, Lepidium sativum, common chickweed, Stellaria media, and white mustard […] alba Plants were obtained as seeds and were grown to the 2-4 true leaf stage. Plants were grown under laboratory conditions, individually in seed trays. Each plant (in an approximately 3 cm diameter plug) was then detached from the tray for spraying. The compounds were screened at a range of five concentrations, diluted in acetone and TweenTM. A carrier only control was also conducted. Treatments were applied directly onto the plants, using a potter tower, at a specified application rate. One plant of each species was sprayed using a potter tower. The 3 different types of plants were placed on a 10 cm diameter platform directly beneath the potter sprayer and sprayed simultaneously. The growth of the plants and any Phytotoxicity effects were then assessed at intervals over 21 days, according to EPPO guideline PP1/135. Five replicas were performed for each treatment, for each species. In the tables below C represents a percentage increase in necrosis relative to the control of 0.1-50; B represents a percentage inhibition of 50-80; and A represents a percentage inhibition of 80-100.

[2] = test system: garden cress, Lepidium sativum; test: as above; format: in vivo
Method: as §1

[3] = 12.5 g/ha, day 1 post application
[4] = 12.5 g/ha, day 2 post application
[5] = 12.5 g/ha, day 3 post application
[6] = 12.5 g/ha, day 4 post application
[7] = 12.5 g/ha, day 5 post application
[8] = 12.5 g/ha, day 7 post application
[9] = 12.5 g/ha, day 10 post application
[10] = 25 g/ha, day 1 post application
[11] = 25 g/ha, day 2 post application
[12] = 25 g/ha, day 3 post application
[13] = 25 g/ha, day 4 post application
[14] = 25 g/ha, day 5 post application
[15] = 25 g/ha, day 7 post application
[16] = 25 g/ha, day 10 post application
[17] = 50 g/ha, day 1 post application
[18] = 50 g/ha, day 2 post application
[19] = 50 g/ha, day 3 post application
[20] = 50 g/ha, day 4 post application
[21] = 50 g/ha, day 5 post application
[22] = 50 g/ha, day 7 post application
[23] = 50 g/ha, day 10 post application
[24] = 100 g/ha, day 1 post application
[25] = 100 g/ha, day 2 post application
[26] = 100 g/ha, day 3 post application
[27] = 100 g/ha, day 4 post application
[28] = 100 g/ha, day 5 post application
[29] = 100 g/ha, day 7 post application
[30] = 100 g/ha, day 10 post application
[31] = 200 g/ha, day 1 post application
[32] = 200 g/ha, day 2 post application
[33] = 200 g/ha, day 3 post application
[34] = 200 g/ha, day 4 post application

For CC(C)N(C)S(=O)(=O)/N=C/c1cc(-n2c(=O)cc(C(F)(F)F)n(C)c2=O)c(F)cc1Cl [Compound 22, 1-[4-Chloro-2-fluoro-5-[(E)-(isopropyl(methyl)sulfamoyl)iminomethyl]phenyl]-3-methyl-2,6-dioxo-4-(trifluoromethyl)pyrimidine], the Average of necrosis [1, 3] was “C (C represents a percentage increase in necrosis relative to the control of 0.1-50)”, the Average of necrosis [1, 4] was “C (C represents a percentage increase in necrosis relative to the control of 0.1-50)” and the Average of necrosis [1, 5] was “C (C represents a percentage increase in necrosis relative to the control of 0.1-50)”. For the same compound, the Average of necrosis [1, 6] was “C (C represents a percentage increase in necrosis relative to the control of 0.1-50)”, the Average of necrosis [1, 7] was “B (B represents a percentage inhibition of 50-80)” and the Average of necrosis [1, 8] was “B (B represents a percentage inhibition of 50-80)”. The Average of necrosis [1, 9] was “B (B represents a percentage inhibition of 50-80)”, the Average of necrosis [1, 10] was “C (C represents a percentage increase in necrosis relative to the control of 0.1-50)” and the Average of necrosis [1, 11] was “C (C represents a percentage increase in necrosis relative to the control of 0.1-50)”. The Average of necrosis [1, 12] was “C (C represents a percentage increase in necrosis relative to the control of 0.1-50)”, the Average of necrosis [1, 13] was “C (C represents a percentage increase in necrosis relative to the control of 0.1-50)” and the Average of necrosis [1, 14] was “A (A represents a percentage inhibition of 80-100)”. The Average of necrosis [1, 15] was “A (A represents a percentage inhibition of 80-100)”, the Average of necrosis [1, 16] was “A (A represents a percentage inhibition of 80-100)” and the Average of necrosis [1, 17] was “C (C represents a percentage increase in necrosis relative to the control of 0.1-50)”. The Average of necrosis [1, 18] was “C (C represents a percentage increase in necrosis relative to the control of 0.1-50)”, the Average of necrosis [1, 19] was “C (C represents a percentage increase in necrosis relative to the control of 0.1-50)” and the Average of necrosis [1, 20] was “B (B represents a percentage inhibition of 50-80)”. For the same compound, the Average of necrosis [1, 21] was “B (B represents a percentage inhibition of 50-80)”, the Average of necrosis [1, 22] was “B (B represents a percentage inhibition of 50-80)” and the Average of necrosis [1, 23] was “A (A represents a percentage inhibition of 80-100)”. For the same compound, the Average of necrosis [1, 24] was “C (C represents a percentage increase in necrosis relative to the control of 0.1-50)”, the Average of necrosis [1, 25] was “C (C represents a percentage increase in necrosis relative to the control of 0.1-50)” and the Average of necrosis [1, 26] was “C (C represents a percentage increase in necrosis relative to the control of 0.1-50)”. For the same compound, the Average of necrosis [1, 27] was “B (B represents a percentage inhibition of 50-80)”, the Average of necrosis [1, 28] was “A (A represents a percentage inhibition of 80-100)” and the Average of necrosis [1, 29] was “A (A represents a percentage inhibition of 80-100)”. For the same compound, the Average of necrosis [1, 30] was “A (A represents a percentage inhibition of 80-100)”, the Average of necrosis [1, 31] was “C (C represents a percentage increase in necrosis relative to the control of 0.1-50)” and the Average of necrosis [1, 32] was “C (C represents a percentage increase in necrosis relative to the control of 0.1-50)”. The Average of necrosis [1, 33] was “C (C represents a percentage increase in necrosis relative to the control of 0.1-50)”, the Average of necrosis [1, 34] was “B (B represents a percentage inhibition of 50-80)” and the Average of necrosis ([1]; 200 g/ha, day 5 post application) was “A (A represents a percentage inhibition of 80-100)”. For the same compound, the Average of necrosis ([1]; 200 g/ha, day 7 post application) was “A (A represents a percentage inhibition of 80-100)”, the Average of necrosis ([1]; 200 g/ha, day 10 post application) was “A (A represents a percentage inhibition of 80-100)” and the Average of necrosis [2, 3] was “C (C represents a percentage increase in necrosis relative to the control of 0.1-50)”. For the same compound, the Average of necrosis [2, 4] was “C (C represents a percentage increase in necrosis relative to the control of 0.1-50)”, the Average of necrosis [2, 5] was “C (C represents a percentage increase in necrosis relative to the control of 0.1-50)” and the Average of necrosis [2, 6] was “C (C represents a percentage increase in necrosis relative to the control of 0.1-50)”. The Average of necrosis [2, 7] was “C (C represents a percentage increase in necrosis relative to the control of 0.1-50)”, the Average of necrosis [2, 8] was “C (C represents a percentage increase in necrosis relative to the control of 0.1-50)” and the Average of necrosis [2, 9] was “B (B represents a percentage inhibition of 50-80)”. The Average of necrosis [2, 10] was “C (C represents a percentage increase in necrosis relative to the control of 0.1-50)”, the Average of necrosis [2, 11] was “C (C represents a percentage increase in necrosis relative to the control of 0.1-50)” and the Average of necrosis [2, 12] was “C (C represents a percentage increase in necrosis relative to the control of 0.1-50)”. For the same compound, the Average of necrosis [2, 13] was “C (C represents a percentage increase in necrosis relative to the control of 0.1-50)”, the Average of necrosis [2, 14] was “C (C represents a percentage increase in necrosis relative to the control of 0.1-50)” and the Average of necrosis [2, 15] was “C (C represents a percentage increase in necrosis relative to the control of 0.1-50)”. The Average of necrosis [2, 16] was “A (A represents a percentage inhibition of 80-100)”, the Average of necrosis [2, 17] was “C (C represents a percentage increase in necrosis relative to the control of 0.1-50)” and the Average of necrosis [2, 18] was “C (C represents a percentage increase in necrosis relative to the control of 0.1-50)”. For the same compound, the Average of necrosis [2, 19] was “C (C represents a percentage increase in necrosis relative to the control of 0.1-50)”, the Average of necrosis [2, 20] was “C (C represents a percentage increase in necrosis relative to the control of 0.1-50)” and the Average of necrosis [2, 21] was “B (B represents a percentage inhibition of 50-80)”. The Average of necrosis [2, 22] was “B (B represents a percentage inhibition of 50-80)”, the Average of necrosis [2, 23] was “B (B represents a percentage inhibition of 50-80)” and the Average of necrosis [2, 24] was “C (C represents a percentage increase in necrosis relative to the control of 0.1-50)”. The Average of necrosis [2, 25] was “C (C represents a percentage increase in necrosis relative to the control of 0.1-50)”, the Average of necrosis [2, 26] was “C (C represents a percentage increase in necrosis relative to the control of 0.1-50)” and the Average of necrosis [2, 27] was “C (C represents a percentage increase in necrosis relative to the control of 0.1-50)”. For the same compound, the Average of necrosis [2, 28] was “B (B represents a percentage inhibition of 50-80)”, the Average of necrosis [2, 29] was “B (B represents a percentage inhibition of 50-80)” and the Average of necrosis [2, 30] was “B (B represents a percentage inhibition of 50-80)”. For the same compound, the Average of necrosis [2, 31] was “C (C represents a percentage increase in necrosis relative to the control of 0.1-50)”, the Average of necrosis [2, 32] was “C (C represents a percentage increase in necrosis relative to the control of 0.1-50)” and the Average of necrosis [2, 33] was “C (C represents a percentage increase in necrosis relative to the control of 0.1-50)”. For the same compound, the Average of necrosis [2, 34] was “C (C represents a percentage increase in necrosis relative to the control of 0.1-50)”.
